Source: publication PMC11879040, “Advancing systemic toxicity risk assessment: Evaluation of a NAM-based toolbox approach” (Toxicological Sciences, 2024)
Like-named read-outs stand apart in the source and are kept apart here.

Experiments:
HepG2 cells [1] = assay: High-throughput transcriptomics (HTTr, TempO-Seq), HepG2, 24 h; type: cell-based, human; conditions: HepG2; for pod_httr_bifrost PoD: HTTr BIFROST PoD; for podl_path_minbmd PoD: HTTr minimum pathway BMD(L)
Method: (§1) HepG2, HepaRG, and MCF7 cells were treated with each compound for 24 h across a dose range of 7 concentrations and lysed using TempO-Seq lysis buffer (BioSpyder Technologies, proprietary kit, see [Middleton et al. 2022] for method details). Sequencing was performed using TempO-Seq (BioClavis) version 2 of the human whole transcriptome panel and analyzed as described previously in Middleton et al.

[2] = ref [19-22]; cited from earlier work
MCF7 cells = assay: High-throughput transcriptomics (HTTr, TempO-Seq), MCF7, 24 h; type: cell-based, human; conditions: MCF-7; for pod_httr_bifrost PoD: HTTr BIFROST PoD; for podl_path_minbmd PoD: HTTr minimum pathway BMD(L)
Method: as §1

[3] = molecular target: T1, Adenosine receptor A2a, ADORA2A (h) (Homo sapiens, UniProt P29274); assay: IPP ADORA2A binding (agonist radioligand); conditions: IPP screening at 100 uM; control NECA
T1 construct: purchased Eurofins Cerep (SafetyScreen44-based IPP panel)

[4] = human
HepG2 cells [5] = assay: Cell stress panel (CSP), 24 h, 8 concentrations, BIFROST global PoD; type: cell-based; conditions: HepG2; cell stress panel PoD
Method: Compounds were tested using the previously developed cell stress panel ([Hatherell et al. 2020]) and the expanded biomarker panel outlined in Middleton et al. HepG2 cells were treated with all compounds for 24 h across 8 concentrations prior to biomarker analysis. The same plate layout and number of replicates (3 biological and 2 technical) were used as previously for each assay within the panel.

human = conditions: 7 month human volunteer study; ref [19-22]; cited from earlier work
[6] = tested on: Glutamate receptor ionotropic NMDA 1 non-selective, GRIN1 (r)
[7] = tested on: Gamma-aminobutyric acid receptor subunit alpha-1 BZD site, GABRA1A (r); type: binding, rat
monkey = conditions: cited from earlier work
HepaRG cells = assay: High-throughput transcriptomics (HTTr, TempO-Seq), HepaRG, 24 h; type: cell-based, human; conditions: HepaRG; for pod_httr_bifrost PoD: HTTr BIFROST PoD; for podl_path_minbmd PoD: HTTr minimum pathway BMD(L)
Method: as §1

[8] = tested on: Thyroid hormone receptor alpha, THRA (h); assay: IPP THRA coactivator recruitment (agonist); type: biochemical, human; conditions: 100 uM; agonist; T3; * denotes assay interference (2-Amino-6-chloro-4-nitrophenol, HC Red 3)
[9] = tested on: Potassium Voltage-Gated Channel Kv non-selective, KCNQ1 (r); assay: IPP KCNQ1 binding (antagonist radioligand); set-up: species or system rat; conditions: IPP screening at 100 uM; control α-dendrotoxin
[10] = tested on: Sodium channel protein type 5 subunit alpha (site 2), SCN5A (r); type: binding, rat
Tubulin (r) = assay: IPP Tubulin binding; set-up: species or system rat; conditions: 100 uM; ligand/control Colchicine
[11] = skin penetration (PBK input)
[12] = cited from earlier work
[13] = Assignment of risk classifications to benchmark chemical-exposure scenarios; conditions: for risk: from table S1
[14] = cited from earlier work; remark: listed apart in the source
[15] = per chemical see Peff Reference, cited from earlier work
[16] = molecular target: Voltage-dependent L-type Ca2+ channel (dihydropyridine site), CACNA1C (r) (Rattus norvegicus, UniProt P22002); type: binding
[17] = hepatic intrinsic clearance (Clint); conditions: PBK input, levels L2/L3; scaled from [10]
[18] = intestinal absorption (PBK input); type: in vitro ADME; conditions: levels L2/L3, converted from [36]
rat = conditions: rat; repeat dose toxicity : oral; ref ToxRefDB/Paul-Friedman et al. (2020)/regulatory opinions; cited from earlier work
[19] = tested on: 63 targets with known safety liabilities; assay: In vitro pharmacological profiling (IPP) panel, screening at 10 or 100 µM and dose response, minimum IC50/AC50; type: biochemical; conditions: lowest AC50 across IPP panel (systemic targets); cell_type -; read-out: ipp_lowest_ac50_systemic PoD
[20] = PBK level L2, optimised based on [21] (glutaraldehyde), [23] (HCRed3), [28] (ibuprofen)
[21] = PBK level L3, optimised based on [28]
[22] = IPP screening at 100 uM, control CGS 19755
[23] = IPP screening at 100 uM, control diazepam
[24] = IV 200 mg slow IV (3min), 8 healthy male, validation, ref Martin et al. 1990
[25] = IV 400 mg slow IV (3min), 8 healthy male, validation, ref Martin et al. 1990
[26] = IV 800 mg infusion over five to seven minutes, 12 healthy, calibration, ref Pavliv et al. 2011
[27] = Oral 400 mg tablet, fasted, 18 healthy elderly, validation, ref Albert et al. 1984
[28] = Oral 500 mg ibuprofen lysine tablet (equivalent to 292.6 mg ibuprofen free acid), fasted, 8 healthy male, validation, ref Martin et al. 1990
[29] = Oral 800 mg tablet, fasted, 12 healthy, calibration, ref Pavliv et al. 2011
[30] = Oral 800 mg tablet, fasted, 13 healthy, validation, ref Duxin et al. 2017
[31] = Oral 800 mg tablet, fasted, 18 healthy elderly, validation, ref Albert et al. 1984
[32] = Oral 800 mg tablet, fed, 10 healthy, validation, ref Duxin et al. 2017
[33] = Oral 1200 mg tablet, fasted, 18 healthy elderly, validation, ref Albert et al. 1984

T1 sequence (P29274 whole entry): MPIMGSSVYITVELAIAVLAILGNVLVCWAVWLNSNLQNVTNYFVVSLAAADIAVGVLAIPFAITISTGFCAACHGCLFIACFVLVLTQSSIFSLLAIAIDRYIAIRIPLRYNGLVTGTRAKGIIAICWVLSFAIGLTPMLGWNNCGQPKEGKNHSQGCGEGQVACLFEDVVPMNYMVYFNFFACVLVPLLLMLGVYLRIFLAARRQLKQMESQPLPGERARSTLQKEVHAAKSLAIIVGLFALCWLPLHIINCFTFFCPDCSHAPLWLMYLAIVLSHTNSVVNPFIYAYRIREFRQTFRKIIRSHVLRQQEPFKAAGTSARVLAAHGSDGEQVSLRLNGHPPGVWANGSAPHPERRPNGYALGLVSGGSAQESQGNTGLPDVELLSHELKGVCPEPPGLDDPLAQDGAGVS
Chain of Voltage-dependent L-type Ca2+ channel (dihydropyridine site), CACNA1C (r) (P22002 whole entry): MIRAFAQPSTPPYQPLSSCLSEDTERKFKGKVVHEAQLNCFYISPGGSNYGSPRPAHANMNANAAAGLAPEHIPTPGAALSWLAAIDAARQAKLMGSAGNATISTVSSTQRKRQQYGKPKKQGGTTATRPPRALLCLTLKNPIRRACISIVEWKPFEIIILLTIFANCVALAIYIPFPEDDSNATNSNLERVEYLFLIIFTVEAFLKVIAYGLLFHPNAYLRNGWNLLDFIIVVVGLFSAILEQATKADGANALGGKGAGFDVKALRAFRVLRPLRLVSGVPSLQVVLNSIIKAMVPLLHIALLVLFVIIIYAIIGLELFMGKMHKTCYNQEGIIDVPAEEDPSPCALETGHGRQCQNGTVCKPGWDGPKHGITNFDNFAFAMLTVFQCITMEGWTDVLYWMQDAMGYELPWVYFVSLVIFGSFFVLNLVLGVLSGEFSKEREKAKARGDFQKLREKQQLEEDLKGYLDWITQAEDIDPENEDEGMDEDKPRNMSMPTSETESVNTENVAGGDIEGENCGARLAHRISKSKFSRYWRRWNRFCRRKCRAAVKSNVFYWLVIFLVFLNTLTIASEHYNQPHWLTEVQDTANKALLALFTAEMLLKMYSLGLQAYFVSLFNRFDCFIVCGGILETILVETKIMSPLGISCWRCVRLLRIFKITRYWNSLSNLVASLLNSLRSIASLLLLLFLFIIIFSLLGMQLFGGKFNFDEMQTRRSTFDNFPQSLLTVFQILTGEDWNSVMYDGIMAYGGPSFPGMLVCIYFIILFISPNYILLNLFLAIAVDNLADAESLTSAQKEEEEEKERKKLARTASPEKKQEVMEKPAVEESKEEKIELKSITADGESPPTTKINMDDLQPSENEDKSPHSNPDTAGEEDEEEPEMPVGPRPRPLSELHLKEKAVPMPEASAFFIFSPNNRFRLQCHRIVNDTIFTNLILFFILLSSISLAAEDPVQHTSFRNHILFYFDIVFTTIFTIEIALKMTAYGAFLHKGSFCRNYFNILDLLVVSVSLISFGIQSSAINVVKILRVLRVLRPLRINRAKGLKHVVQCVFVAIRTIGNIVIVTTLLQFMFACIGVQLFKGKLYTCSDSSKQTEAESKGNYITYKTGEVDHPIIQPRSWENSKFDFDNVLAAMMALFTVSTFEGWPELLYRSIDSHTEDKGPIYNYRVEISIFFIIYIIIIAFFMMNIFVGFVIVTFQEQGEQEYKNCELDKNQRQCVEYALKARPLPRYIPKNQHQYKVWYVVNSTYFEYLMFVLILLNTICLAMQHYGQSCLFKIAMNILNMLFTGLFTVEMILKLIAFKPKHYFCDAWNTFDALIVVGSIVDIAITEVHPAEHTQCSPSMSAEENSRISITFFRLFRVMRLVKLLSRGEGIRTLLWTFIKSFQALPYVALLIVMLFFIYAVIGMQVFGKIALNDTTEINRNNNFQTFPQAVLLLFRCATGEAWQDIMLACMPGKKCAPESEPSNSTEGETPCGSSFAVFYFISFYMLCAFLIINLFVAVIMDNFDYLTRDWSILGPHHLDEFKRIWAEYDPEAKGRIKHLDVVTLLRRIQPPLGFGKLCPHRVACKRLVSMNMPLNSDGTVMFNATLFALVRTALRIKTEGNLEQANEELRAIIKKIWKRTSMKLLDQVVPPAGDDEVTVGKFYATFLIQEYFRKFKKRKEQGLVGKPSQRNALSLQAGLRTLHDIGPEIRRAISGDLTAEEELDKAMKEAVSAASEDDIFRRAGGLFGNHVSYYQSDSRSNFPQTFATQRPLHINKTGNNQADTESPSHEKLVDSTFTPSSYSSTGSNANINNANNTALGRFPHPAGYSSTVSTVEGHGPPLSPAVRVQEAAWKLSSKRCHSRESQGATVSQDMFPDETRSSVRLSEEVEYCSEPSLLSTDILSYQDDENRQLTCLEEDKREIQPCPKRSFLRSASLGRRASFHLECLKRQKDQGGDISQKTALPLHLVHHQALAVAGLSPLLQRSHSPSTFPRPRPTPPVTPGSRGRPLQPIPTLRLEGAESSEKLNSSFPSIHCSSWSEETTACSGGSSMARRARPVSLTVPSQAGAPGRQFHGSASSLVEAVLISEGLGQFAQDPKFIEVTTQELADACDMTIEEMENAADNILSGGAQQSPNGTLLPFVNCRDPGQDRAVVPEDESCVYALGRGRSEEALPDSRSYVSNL

O=S(=O)(O)NC1CCCCC1 [Cyclamate, Sodium cyclohexylsulfamate]
responding probes (with CDS > 0.5) (HepG2 cells [1]): 22 | ADI [2]: 7 mg/kg bw/day | responding probes (with CDS > 0.5) (MCF7 cells): 18 | Specific binding [3]: 1.0% | risk [4]: 0 | pod_cell_stress PoD (HepG2 cells [5]): 480.52 µM | dietary level at which persistent diarrhoea was noted (human): ≥ 141 mg/kg bw/day | Specific binding [6]: -4.4% | Specific binding [7]: -8.6% | male monkeys showing testicular effects (monkey; lifetime monkey study, 500 mg/kg bw/day, at 23 years, ref [19-22]): 2/5 | responding probes (with CDS > 0.5) (HepaRG cells): 7 | IPP screening %, Coactivator recruitment [8]: 2.0% | Specific binding [9]: 0.6% | Specific binding [10]: 19.1% | IPP screening %, Specific binding (Tubulin (r)): 21.0%

CC(C)Cc1ccc(C(C)C(=O)O)cc1 (stereo not drawn) [Ibuprofen, 2-[4-(2-Methylpropyl)phenyl]propanoic acid]
pod_httr_bifrost PoD (HepG2 cells [1]): 7.6781 µM | podl_path_minbmd PoD (HepG2 cells [1]): 30.2909 µM | Diffusivity Dermis [11, 20]: 1.00E-06 cm^2/s | Diffusivity Stratum Corneum [11, 20]: 1.00E-09 cm^2/s | Diffusivity Viable Epidermis [11, 20]: 1.00E-06 cm^2/s | Partition Coefficient Stratum Corneum/Water ([11]; PBK level L2, optimised based on [21] (glutaraldehyde), [23] (HCRed3), [28] (ibuprofen), no reference printed (DEET)): 1500.00 | Partition Coefficient Viable Epidermis/Water ([11]; PBK level L2, optimised based on [21] (glutaraldehyde), [28] (ibuprofen)): 700.00 | Diffusivity Vehicle ([11]; PBK level L2, optimised based on [23] (HCRed3), [28] (ibuprofen)): 1.00E-05 cm^2/s | Partition Coefficient Vehicle/Water ([11]; PBK level L2, optimised based on [28]): 10.00 | Diffusivity Dermis [11, 21]: 1.00E-06 cm^2/s | Diffusivity Stratum Corneum [11, 21]: 1.00E-09 cm^2/s | Diffusivity Vehicle [11, 21]: 1.00E-05 cm^2/s | Diffusivity Viable Epidermis [11, 21]: 1.00E-06 cm^2/s | Partition Coefficient Stratum Corneum/Water [11, 21]: 1500.00 | Partition Coefficient Vehicle/Water [11, 21]: 10.00 | Partition Coefficient Viable Epidermis/Water [11, 21]: 700.00 | pod_httr_bifrost PoD (MCF7 cells): 42.8965 µM | podl_path_minbmd PoD (MCF7 cells): 150.462 µM | pod_cell_stress PoD (HepG2 cells [5]): 8.518 µM | Specific binding [6, 22]: 7.2% | Specific binding [7, 23]: 5.3% | PoD (NOAEL) (monkey; monkey, 52 weeks, ref ToxRefDB/Paul-Friedman et al. (2020)/regulatory opinions): 40 mg/kg bw/day | Fup ([12]; PBK level L2, single value or median, ref [2],[4],[6],[7],[8],[10],[11],[15],[18],[27],[34]): 1.3% | Fup ([12]; PBK level L3, single value or median, ref [2],[4],[6],[7],[8],[10],[11],[15],[18],[27],[34]): 1.3% | risk ([13]; Dermal, 10%, Gel, Exp3): 1 | risk ([13]; Oral, High therapeutic, 1200mg/day, Tablet, Exp1): 1 | risk ([13]; Oral, Low therapeutic, 200mg/day, Tablet, Exp2): 1 | pod_httr_bifrost PoD (HepaRG cells): 0.1626 µM | podl_path_minbmd PoD (HepaRG cells): 8.099 µM | IPP screening %, Coactivator recruitment [8]: 1.0% | Specific binding [9]: -8.5% | Reported AUC0-t [14, 24]: 59.96 µg·h/mL | Reported cmax [14, 24]: 39 µg/mL | Reported AUC0-t [14, 25]: 117.4 µg·h/mL | Reported cmax [14, 25]: 79.75 µg/mL | Reported AUC0-t [14, 26]: 187.4 µg·h/mL | Reported cmax [14, 26]: 120.2 µg/mL | Reported AUC0-t [14, 27]: 128 µg·h/mL | Reported cmax [14, 27]: 32.5 µg/mL | Reported AUC0-t [14, 28]: 85.59 µg·h/mL | Reported cmax [14, 28]: 30.32 µg/mL | Reported AUC0-t [14, 29]: 187.4 µg·h/mL | Reported cmax [14, 29]: 57.3 µg/mL | Reported AUC0-t [14, 30]: 252 µg·h/mL | Reported cmax [14, 30]: 41.52 µg/mL | Reported AUC0-t [14, 31]: 236.6 µg·h/mL | Reported cmax [14, 31]: 60.2 µg/mL | Reported AUC0-t [14, 32]: 223 µg·h/mL | Reported cmax [14, 32]: 25.22 µg/mL | Reported AUC0-t [14, 33]: 279.2 µg·h/mL | Reported cmax [14, 33]: 71.1 µg/mL | Peff ([15]; PBK level L2, ref [3],[4],[11]): 5.034 cm/s x E-04 | Peff ([15]; PBK level L3, ref [4],[11]): 5.034 cm/s x E-04 | Specific binding [10]: 32.1% | Specific binding [16]: -14.3% | IPP screening %, Specific binding (Tubulin (r)): -14.0%

CC(=O)Nc1ccc(O)cc1 [Paracetamol, N-(4-Hydroxyphenyl)acetamide]
pod_httr_bifrost PoD (HepG2 cells [1]): 9.465 µM | podl_path_minbmd PoD (HepG2 cells [1]): 262.202 µM | Intrinsic Liver Clearance [17]: 10.79 L/h | pod_httr_bifrost PoD (MCF7 cells): 4.261 µM | podl_path_minbmd PoD (MCF7 cells): 184.341 µM | Specific binding [3]: 6.7% | pod_cell_stress PoD (HepG2 cells [5]): 40.132 µM | Specific binding [6, 22]: -4.2% | Specific binding [7, 23]: 8.7% | Peff [18]: 3.56 cm/s x E-04 | PoD (LOEL) (rat): 30 mg/kg bw/day | Fup ([12]; PBK input, level L2, ref [10]): 100% | Risk Classification ([13]; IV 4000 mg/day): High risk | risk ([13]; IV, High therapeutic, 4g/day, Exp3): 1 | Risk Classification ([13]; Oral 500 mg/day): High risk | Risk Classification ([13]; Oral 4000 mg/day): High risk | risk ([13]; Oral, High therapeutic, 4000mg/day, Tablet, Exp1): 1 | risk ([13]; Oral, Low therapeutic, 500mg/day, Tablet, Exp2): 1 | pod_httr_bifrost PoD (HepaRG cells): 76.0572 µM | podl_path_minbmd PoD (HepaRG cells): 322.442 µM | IPP screening %, Coactivator recruitment [8]: 1.0% | Specific binding [9]: -3.6% | AC50 [19]: 39.1 µM | Specific binding [10]: 34.9% | IPP screening %, Specific binding (Tubulin (r)): -2%
